According to PMC5588088, “Topological Dissection of the Membrane Transport Protein Mhp1 Derived from Cysteine Accessibility and Mass Spectrometry” (Analytical Chemistry, 2017):

What was measured:
[1] = target: T1, Mhp1 (Microbacterium maritypicum, UniProt D6R8X8); experiment: tryptophan fluorescence quenching titration; format: binding; conditions: 140 mM NaCl (also 15 and 1000 mM)
T1 construct: gene hyuP; full-length wild type with C-terminal His6 tag, purified in DDM

[2] = target: T1, Mhp1; experiment: NEM labelling of Cys327 with intact mass spectrometry, protection by ligand; format: binding; conditions: 140 mM Na+, pH 8, 25 °C, 0.05% DDM

T1 sequence (D6R8X8 whole entry): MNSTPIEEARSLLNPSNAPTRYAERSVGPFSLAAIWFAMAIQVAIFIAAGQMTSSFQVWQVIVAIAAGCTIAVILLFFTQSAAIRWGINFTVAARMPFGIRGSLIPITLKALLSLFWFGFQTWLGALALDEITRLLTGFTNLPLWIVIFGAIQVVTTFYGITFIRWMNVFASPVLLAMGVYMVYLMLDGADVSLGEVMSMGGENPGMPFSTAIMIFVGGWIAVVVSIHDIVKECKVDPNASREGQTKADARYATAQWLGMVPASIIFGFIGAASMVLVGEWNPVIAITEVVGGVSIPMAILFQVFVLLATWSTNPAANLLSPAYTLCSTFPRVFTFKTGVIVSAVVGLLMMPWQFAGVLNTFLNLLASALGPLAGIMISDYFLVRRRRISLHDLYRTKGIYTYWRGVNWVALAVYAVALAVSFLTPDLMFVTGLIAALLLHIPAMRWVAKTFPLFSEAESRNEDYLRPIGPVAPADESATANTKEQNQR

Structure (SMILES)	Kd app [1]	reduction in NEM labeling at 2 mM [2]
O=C1NC(=O)[C@H](Cc2ccccc2)N1 [L-BH, 5-benzyl-L-hydantoin]	Tryptophan fluorescence quenching of Mhp1 upon titration with L-BH	–
O=C1NC(=O)[C@H](Cc2c[nH]c3ccccc23)N1 [L-IMH, 5-indolylmethyl-L-hydantoin]	–	5-indolylmethyl-L-hydantoin (L-IMH)
